Reference: ChEMBL document CHEMBL5055650, “4-Acyl Pyrrole Capped HDAC Inhibitors: A New Scaffold for Hybrid Inhibitors of BET Proteins and Histone Deacetylases as Antileukemia Drug Leads” (J Med Chem, 2021)
pIC50, pKd: −log10 of the molar value. Active and inactive are the calls of the source. The rule behind the calls is not given here.

How the values were obtained:
Histone deacetylase 1 = Histone deacetylase 1 (Homo sapiens, UniProt Q13547); experiment: Inhibition of human recombinant HDAC1 assessed as fluorescence using fluorogenic substrate ZMAL incubated for 90 min by microplate reader
Chain of Histone deacetylase 1 (Q13547 whole entry, the tested form may be a part): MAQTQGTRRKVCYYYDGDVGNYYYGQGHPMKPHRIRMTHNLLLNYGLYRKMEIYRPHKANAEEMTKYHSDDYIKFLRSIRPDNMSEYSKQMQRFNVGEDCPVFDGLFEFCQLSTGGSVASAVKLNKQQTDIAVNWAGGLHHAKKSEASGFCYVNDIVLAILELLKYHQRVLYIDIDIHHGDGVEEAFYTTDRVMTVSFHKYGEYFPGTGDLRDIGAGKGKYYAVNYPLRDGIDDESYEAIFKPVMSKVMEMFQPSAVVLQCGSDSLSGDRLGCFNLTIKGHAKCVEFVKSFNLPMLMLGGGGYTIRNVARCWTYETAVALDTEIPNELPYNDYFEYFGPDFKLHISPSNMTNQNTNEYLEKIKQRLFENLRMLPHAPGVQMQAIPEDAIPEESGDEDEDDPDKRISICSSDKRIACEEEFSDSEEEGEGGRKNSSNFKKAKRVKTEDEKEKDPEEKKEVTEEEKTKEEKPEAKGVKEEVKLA

[1] = molecular target: Bromodomain-containing protein 4 (Homo sapiens, UniProt O60885); experiment: Binding affinity to human BRD4 domain 1 (unknown origin) assessed as dissociation constant by isothermal titration calorimetry assay; settings: for pKd: read-out: Kd
[2] = molecular target: T1, Protein deacetylase HDAC6 (Homo sapiens, UniProt Q9UBN7); experiment: Inhibition of human recombinant HDAC6 assessed as fluorescence using fluorogenic substrate ZMAL incubated for 90 min by microplate reader
T1 sequence (Q9UBN7 whole entry): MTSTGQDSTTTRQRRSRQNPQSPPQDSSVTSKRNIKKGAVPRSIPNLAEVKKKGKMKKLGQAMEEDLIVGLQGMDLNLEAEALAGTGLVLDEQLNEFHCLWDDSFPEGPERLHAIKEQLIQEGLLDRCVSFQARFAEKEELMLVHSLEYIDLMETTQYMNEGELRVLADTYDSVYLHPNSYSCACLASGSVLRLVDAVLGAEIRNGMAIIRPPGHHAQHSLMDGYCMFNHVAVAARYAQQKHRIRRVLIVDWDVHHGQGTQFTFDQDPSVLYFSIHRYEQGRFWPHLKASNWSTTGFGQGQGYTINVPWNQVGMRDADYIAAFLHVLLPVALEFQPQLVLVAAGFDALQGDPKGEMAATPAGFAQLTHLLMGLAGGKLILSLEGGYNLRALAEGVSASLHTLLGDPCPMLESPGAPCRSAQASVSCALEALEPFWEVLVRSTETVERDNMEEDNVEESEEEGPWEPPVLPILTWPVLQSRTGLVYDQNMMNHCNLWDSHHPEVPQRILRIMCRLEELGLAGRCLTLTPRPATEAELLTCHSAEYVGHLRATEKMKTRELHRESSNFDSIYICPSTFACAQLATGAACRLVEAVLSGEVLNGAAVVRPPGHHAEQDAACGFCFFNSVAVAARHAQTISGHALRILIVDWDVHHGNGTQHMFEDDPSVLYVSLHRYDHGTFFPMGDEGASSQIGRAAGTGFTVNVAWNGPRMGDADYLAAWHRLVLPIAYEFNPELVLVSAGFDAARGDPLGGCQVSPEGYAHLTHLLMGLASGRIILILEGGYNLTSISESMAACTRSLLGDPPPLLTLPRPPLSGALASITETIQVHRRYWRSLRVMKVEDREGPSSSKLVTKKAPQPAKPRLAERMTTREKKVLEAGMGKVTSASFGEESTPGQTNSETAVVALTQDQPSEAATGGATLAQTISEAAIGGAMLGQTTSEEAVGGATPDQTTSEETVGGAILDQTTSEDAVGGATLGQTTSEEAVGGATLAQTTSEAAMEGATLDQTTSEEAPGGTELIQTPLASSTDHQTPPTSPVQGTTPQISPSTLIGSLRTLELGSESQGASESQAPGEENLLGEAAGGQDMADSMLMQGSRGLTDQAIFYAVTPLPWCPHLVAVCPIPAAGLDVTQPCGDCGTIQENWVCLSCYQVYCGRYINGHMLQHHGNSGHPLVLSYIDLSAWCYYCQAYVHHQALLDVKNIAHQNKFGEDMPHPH

[3] = molecular target: T2, Bromodomain-containing protein 2 (Homo sapiens, UniProt P25440); experiment: Binding affinity to human BRD2 domain 1 assessed as dissociation constant by isothermal titration calorimetry assay
T2 sequence (P25440 whole entry, the tested form may be a part): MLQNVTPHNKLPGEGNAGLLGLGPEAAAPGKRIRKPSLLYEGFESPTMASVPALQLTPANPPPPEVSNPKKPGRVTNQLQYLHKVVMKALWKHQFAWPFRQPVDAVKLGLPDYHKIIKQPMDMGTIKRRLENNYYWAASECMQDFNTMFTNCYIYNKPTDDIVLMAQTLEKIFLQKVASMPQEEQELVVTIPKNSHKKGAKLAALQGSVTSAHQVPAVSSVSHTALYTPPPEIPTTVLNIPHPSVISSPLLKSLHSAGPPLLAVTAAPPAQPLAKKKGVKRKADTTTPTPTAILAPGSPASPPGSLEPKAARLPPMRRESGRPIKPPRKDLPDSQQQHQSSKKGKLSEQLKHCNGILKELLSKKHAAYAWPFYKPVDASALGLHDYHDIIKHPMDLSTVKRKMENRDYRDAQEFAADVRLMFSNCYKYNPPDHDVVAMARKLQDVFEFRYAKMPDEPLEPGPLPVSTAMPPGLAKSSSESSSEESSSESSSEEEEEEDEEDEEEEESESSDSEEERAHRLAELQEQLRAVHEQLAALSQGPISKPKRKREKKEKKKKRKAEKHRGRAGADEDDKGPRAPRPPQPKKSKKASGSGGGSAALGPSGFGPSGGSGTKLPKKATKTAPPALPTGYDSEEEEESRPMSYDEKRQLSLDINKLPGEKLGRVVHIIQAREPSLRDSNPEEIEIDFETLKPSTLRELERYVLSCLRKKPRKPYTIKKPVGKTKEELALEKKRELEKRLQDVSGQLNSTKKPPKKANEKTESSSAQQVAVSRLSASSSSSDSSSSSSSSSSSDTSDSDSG

K562 [4] = experiment: Anticancer activity against human K562 cells assessed as cell growth inhibition by CellTiter-Glo luminescent assay; assay type: functional, cell-based
REH = experiment: Anticancer activity against human REH cells assessed as cell growth inhibition by CellTiter-Glo luminescent assay; assay type: functional, cell-based
HAL-01 = experiment: Anticancer activity against human HAL-01 cells assessed as cell growth inhibition by CellTiter-Glo luminescent assay; assay type: functional, cell-based
[5] = molecular target: T3, Histone deacetylase (Homo sapiens) (UniProt Q13547+O15379+Q9UBN7+Q92769+Q9UQL6+Q8WUI4+Q9BY41+Q96DB2+P56524+Q9UKV0+Q969S8); experiment: Inhibition of HDAC in human K562 cells assessed as decrease in MYC expression measured after 24 to 72 hrs by Western blot analysis; assay type: cell-based; settings: time 24-72 hrs
Histone deacetylase 2 = Histone deacetylase 2 (Homo sapiens, UniProt Q92769); experiment: Inhibition of human HDAC2 assessed as target activity using fluorogenic substrate ZMAL for 90 min by microplate reader at 355nm
Chain of Histone deacetylase 2 (Q92769 whole entry): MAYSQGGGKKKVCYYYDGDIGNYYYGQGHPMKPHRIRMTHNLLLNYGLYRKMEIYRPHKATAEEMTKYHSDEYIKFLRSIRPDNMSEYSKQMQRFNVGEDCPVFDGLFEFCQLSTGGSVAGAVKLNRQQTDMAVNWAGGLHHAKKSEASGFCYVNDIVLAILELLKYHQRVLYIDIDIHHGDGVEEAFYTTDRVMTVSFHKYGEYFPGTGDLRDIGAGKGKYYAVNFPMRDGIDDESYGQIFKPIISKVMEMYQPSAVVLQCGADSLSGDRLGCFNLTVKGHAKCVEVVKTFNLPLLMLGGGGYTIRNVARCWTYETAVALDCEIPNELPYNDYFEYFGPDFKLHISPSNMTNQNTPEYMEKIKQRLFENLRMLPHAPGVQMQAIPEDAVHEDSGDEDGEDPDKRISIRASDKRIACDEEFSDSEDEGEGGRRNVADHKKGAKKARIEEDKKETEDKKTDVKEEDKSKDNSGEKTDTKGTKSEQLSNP

TALL-1 [6] = experiment: Anticancer activity against human TALL-1 cells assessed as cell growth inhibition by CellTiter-Glo luminescent assay; assay type: functional, cell-based
Histone deacetylase 3 = Histone deacetylase 3 (Homo sapiens, UniProt O15379); experiment: Inhibition of human HDAC3 assessed as target activity using fluorogenic substrate ZMAL for 90 min by microplate reader at 355nm
Chain of Histone deacetylase 3 (O15379 whole entry, the tested form may be a part): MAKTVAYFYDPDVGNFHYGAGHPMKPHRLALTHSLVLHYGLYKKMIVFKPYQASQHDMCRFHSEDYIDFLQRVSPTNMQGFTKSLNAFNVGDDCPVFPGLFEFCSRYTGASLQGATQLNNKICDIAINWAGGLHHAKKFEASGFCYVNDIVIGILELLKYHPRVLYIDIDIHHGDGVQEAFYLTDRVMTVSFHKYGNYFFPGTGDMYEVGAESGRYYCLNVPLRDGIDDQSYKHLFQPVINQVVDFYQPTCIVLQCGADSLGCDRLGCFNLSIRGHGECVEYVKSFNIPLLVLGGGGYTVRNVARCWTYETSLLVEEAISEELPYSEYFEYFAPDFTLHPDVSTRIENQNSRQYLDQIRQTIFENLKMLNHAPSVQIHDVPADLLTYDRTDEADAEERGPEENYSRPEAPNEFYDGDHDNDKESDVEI

[7] = molecular target: T4, Bromodomain-containing protein 3 (Homo sapiens, UniProt Q15059); experiment: Binding affinity to human BRD3 domain 1 assessed as dissociation constant by isothermal titration calorimetry assay
T4 sequence (Q15059 whole entry, the tested form may be a part): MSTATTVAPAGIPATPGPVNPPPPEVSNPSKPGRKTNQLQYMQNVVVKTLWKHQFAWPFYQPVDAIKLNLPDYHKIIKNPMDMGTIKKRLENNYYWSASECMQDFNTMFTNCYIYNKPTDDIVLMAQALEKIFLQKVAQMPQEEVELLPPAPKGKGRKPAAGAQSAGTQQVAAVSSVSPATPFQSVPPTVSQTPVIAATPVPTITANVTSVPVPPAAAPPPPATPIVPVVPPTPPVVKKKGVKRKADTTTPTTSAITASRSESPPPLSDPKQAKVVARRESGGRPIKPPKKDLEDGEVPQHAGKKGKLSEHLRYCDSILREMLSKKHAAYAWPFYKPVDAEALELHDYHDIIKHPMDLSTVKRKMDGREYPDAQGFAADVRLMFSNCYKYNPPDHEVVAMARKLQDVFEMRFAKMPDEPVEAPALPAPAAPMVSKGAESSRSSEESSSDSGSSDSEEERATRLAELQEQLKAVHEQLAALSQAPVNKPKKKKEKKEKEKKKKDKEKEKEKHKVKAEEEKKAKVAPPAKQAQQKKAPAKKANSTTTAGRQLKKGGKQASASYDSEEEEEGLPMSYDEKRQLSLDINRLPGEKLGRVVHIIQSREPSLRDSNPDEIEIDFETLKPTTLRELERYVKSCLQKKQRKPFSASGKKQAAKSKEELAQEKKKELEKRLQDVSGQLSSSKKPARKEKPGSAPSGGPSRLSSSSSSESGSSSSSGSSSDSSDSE

HL-60 [8] = experiment: Anticancer activity against human HL-60 cells assessed as cell growth inhibition by CellTiter-Glo luminescent assay; assay type: functional, cell-based
[9] = molecular target: T3, Histone deacetylase (Homo sapiens); experiment: Inhibition of HDAC in human K562 cells assessed as increase in acetylated alpha-tubulin measured after 48 hrs by Western blot analysis; assay type: cell-based
[10] = molecular target: T4, Bromodomain-containing protein 3; experiment: Binding affinity to human BRD3 domain 2 assessed as dissociation constant by isothermal titration calorimetry assay
[11] = molecular target: T2, Bromodomain-containing protein 2; experiment: Binding affinity to human BRD2 domain 2 assessed as dissociation constant by isothermal titration calorimetry assay
[12] = molecular target: T3, Histone deacetylase (Homo sapiens); experiment: Inhibition of HDAC in human K562 cells assessed as increase in acetylated histone H3 measured after 48 hrs by Western blot analysis; assay type: cell-based
HPBALL [13] = experiment: Anticancer activity against human HPBALL cells assessed as cell growth inhibition by CellTiter-Glo luminescent assay; assay type: functional, cell-based
[14] = molecular target: T5, Bromodomain-containing protein 7 (Homo sapiens, UniProt Q9NPI1); experiment: Binding affinity to human BRD7 assessed as dissociation constant by isothermal titration calorimetry assay
T5 sequence (Q9NPI1 whole entry): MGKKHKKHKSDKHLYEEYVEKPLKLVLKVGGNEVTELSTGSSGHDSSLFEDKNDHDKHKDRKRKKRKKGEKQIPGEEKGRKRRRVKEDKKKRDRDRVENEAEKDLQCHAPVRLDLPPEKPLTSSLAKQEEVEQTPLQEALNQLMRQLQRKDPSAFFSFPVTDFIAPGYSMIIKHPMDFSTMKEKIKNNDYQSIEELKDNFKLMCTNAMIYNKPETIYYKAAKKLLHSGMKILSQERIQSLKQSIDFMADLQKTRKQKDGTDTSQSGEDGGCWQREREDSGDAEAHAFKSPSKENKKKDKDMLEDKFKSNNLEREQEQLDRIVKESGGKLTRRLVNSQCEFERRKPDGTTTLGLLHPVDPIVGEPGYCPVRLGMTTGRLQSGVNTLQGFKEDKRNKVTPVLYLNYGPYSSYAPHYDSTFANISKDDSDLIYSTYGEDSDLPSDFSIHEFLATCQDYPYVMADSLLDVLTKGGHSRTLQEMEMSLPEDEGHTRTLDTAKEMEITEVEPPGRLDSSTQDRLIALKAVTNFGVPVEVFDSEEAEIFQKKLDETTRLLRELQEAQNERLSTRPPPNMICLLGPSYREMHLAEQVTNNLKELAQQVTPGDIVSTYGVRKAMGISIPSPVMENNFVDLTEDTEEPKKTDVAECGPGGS

TALL-1 [15] = experiment: Cytotoxicity against human TALL-1 cells assessed as cell viability at 5 uM by CellTiter-Glo luminescent assay; assay type: functional; settings: read-out: Activity
HPBALL [16] = experiment: Anticancer activity against human HPBALL cells assessed as reduction in size of colony at 5 uM measured after 24 hrs by colony formation assay; assay type: functional, cell-based
MOLT-4 = experiment: Cytotoxicity against human MOLT-4 cells assessed as cell viability at 5 uM by CellTiter-Glo luminescent assay; assay type: functional; settings: read-out: Activity
HL-60 [17] = experiment: Cytotoxicity against human HL-60 cells assessed as cell viability at 5 uM by CellTiter-Glo luminescent assay; assay type: functional; settings: read-out: Activity
HPBALL [18] = experiment: Anticancer activity against human HPBALL cells assessed as reduction in total number of colony forming units at 5 uM measured after 24 hrs by colony formation assay; assay type: functional, cell-based
K562 [19] = experiment: Induction of apoptosis in human K562 cells assessed as increase cleaved PARP expression measured after 24 to 72 hrs by Western blot analysis; assay type: functional, cell-based; settings: time 24-72 hrs
K562 [20] = experiment: Induction of apoptosis in human K562 cells assessed as apoptosis at 6 uM after 24 to 72 hrs using annexin V/PI followed by flow cytometry; assay type: functional, cell-based; settings: time 24-72 hrs

Compound | pIC50 (Histone deacetylase 1) | pKd [1] | pIC50 [2] | viability at 5 µM (TALL-1 [15]) [%] | viability at 5 µM (MOLT-4) [%] | viability at 5 µM (HL-60 [17]) [%] | further results
CCc1c(C(=O)Nc2cccc(CCC(=O)OC)c2)[nH]c(C)c1C(C)=O | < 4.48 | 5.08 | < 4.48 |  |  |  | 
CCc1c(C(=O)Nc2cccc(/C=C/C(=O)NO)c2)[nH]c(C)c1C(C)=O | 6.90 | 5.35 | 7.35 |  |  |  | pKd [3]: 5.11; pIC50 (K562 [4]): 5.13; pIC50 (REH): < 4.60; pIC50 (HAL-01): < 4.60; Activity [5]: Active; pIC50 (Histone deacetylase 2): 6.77; pIC50 (TALL-1 [6]): 5.29; pIC50 (Histone deacetylase 3): 6.83; pKd [7]: < 5.00; pIC50 (HL-60 [8]): < 4.60; inhibition [9]: Active; pKd [10]: < 5.00; pKd [11]: < 5.00; Activity [12]: Active; pIC50 (HPBALL [13]): < 4.60; pKd [14]: < 5.00
Cc1sc2c(c1C)C(c1ccc(Cl)cc1)=N[C@@H](CC(=O)Nc1ccc(O)cc1)c1nnc(C)n1-2 [BIRABRESIB] |  |  |  |  |  |  | pIC50 (K562 [4]): 5.55; pIC50 (REH): 4.81; pIC50 (HAL-01): 5.60; pIC50 (TALL-1 [6]): 5.87; pIC50 (HL-60 [8]): 6.09; pIC50 (HPBALL [13]): 5.15
CCc1c(C(=O)Nc2cccc(CCC(=O)Nc3ccccc3N)c2)[nH]c(C)c1C(C)=O | 4.55 | 5.16 | < 4.00 |  |  |  | 
Cc1c2c(c(C(=O)Nc3cc(S(=O)(=O)N4CCOCC4)ccc3OCCCCCCCC(=O)NO)n1C)CCCCC2=O | 6.48 |  | 6.49 | 82.3 | 115 | 80.8 | Activity (HPBALL [16]): Active; Activity (HPBALL [18]): Active
CCc1c(C(=O)Nc2cc(S(=O)(=O)Nc3cccc(/C=C/C(=O)NO)c3)ccc2OC)[nH]c(C)c1C(C)=O | 7.01 | 5.44 | 7.14 | 85.6 | 106 | 98.7 | 
CCc1c(C(=O)Nc2cccc(CCC(=O)NO)c2)[nH]c(C)c1C(C)=O | 6.05 | 4.94 | 6.18 |  |  |  | 
COC(=O)CCCCCCCOc1ccc(S(=O)(=O)N2CCOCC2)cc1NC(=O)c1c2c(c(C)n1C)C(=O)CCCC2 | < 5.00 | 7.47 | < 5.00 | 70.3 | 68.6 | 104 | 
Cn1cccc1C(=O)Nc1cccc(CCC(=O)NO)c1 | 5.89 |  | 6.21 |  |  |  | Kd [1]: Not Active
CCc1c(C(=O)Nc2cc(/C=C/C(=O)NO)ccc2O)[nH]c(C)c1C(C)=O | 6.85 | 5.58 | 7.10 | 87.6 | 105 | 88.2 | 
O=C(CCCCCCNC(=O)c1cnc(N(c2ccccc2)c2ccccc2)nc1)NO [RICOLINOSTAT] |  |  |  |  |  |  | Activity (K562 [19]): Active; pIC50 (K562 [4]): 5.22; pIC50 (REH): < 4.60; pIC50 (HAL-01): < 4.60; pIC50 (TALL-1 [6]): 5.41; pIC50 (HL-60 [8]): 4.98; Activity (K562 [20]): Active; pIC50 (HPBALL [13]): 5.17
CCc1c(C(=O)Nc2cc(S(=O)(=O)N(CC)CC)ccc2O)[nH]c(C)c1C(C)=O |  |  |  |  |  |  | pKd [3]: 6.77; pKd [7]: 6.42; pKd [10]: 6.31; pKd [11]: 6.08
